Results: patent US20220041606A1, “POSITIVE ALLOSTERIC MODULATORS OF THE MUSCARINIC ACETYLCHOLINE RECEPTOR M1” (Vanderbilt University, priority 2020, published 2022)
pEC50: −log10 of the molar value. Values belong to the compound of their own block, whether it stands above or below them.

Experiments:
human mAChR M1 [1] = target: T1, human mAChR M1 (Homo sapiens, UniProt P11229); experiment: mAChR M1 cell-based functional assay (calcium mobilization), PAM activity: increase in the EC20 acetylcholine response; details: CHO-K1 cells expressing hM1; potentiation of EC20 acetylcholine response
T1 construct: host or cells: CHO-K1 cells (ATCC), stably transfected using Lipofectamine2000
T1 sequence (P11229 1-460): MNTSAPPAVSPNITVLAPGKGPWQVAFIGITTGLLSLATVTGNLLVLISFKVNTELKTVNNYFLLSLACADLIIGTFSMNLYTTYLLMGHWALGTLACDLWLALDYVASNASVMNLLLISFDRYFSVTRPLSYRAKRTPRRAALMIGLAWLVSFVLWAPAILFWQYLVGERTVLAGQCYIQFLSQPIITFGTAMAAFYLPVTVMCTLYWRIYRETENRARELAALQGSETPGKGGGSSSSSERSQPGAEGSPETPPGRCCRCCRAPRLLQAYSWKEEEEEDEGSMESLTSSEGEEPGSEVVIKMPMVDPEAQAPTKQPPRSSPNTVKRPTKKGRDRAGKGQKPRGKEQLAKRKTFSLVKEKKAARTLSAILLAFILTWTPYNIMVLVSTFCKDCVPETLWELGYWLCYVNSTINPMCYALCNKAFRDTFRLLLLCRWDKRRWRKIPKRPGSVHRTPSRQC
Summary of the method: (§1)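 CHO-K1 cells stably expressing hM1, loaded with Fluo-4 AM; calcium flux read on FDSS 6000. Compound (11-point, 1:3 CRC) added at 4 s, EC20 acetylcholine at 144 s, EC80 at 230 s; agonism from response to compound alone, PAM from increase in EC20 response; Emax relative to acetylcholine maximum, four-parameter fit.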

human mAChR M1 [2] = target: T1, human mAChR M1; experiment: mAChR M1 cell-based functional assay (calcium mobilization), agonist activity upon compound addition; details: CHO-K1 cells expressing hM1; for pEC50: compound alone, before acetylcholine addition; for Emax: relative to the maximum for acetylcholine
Summary of the method: as §1

Compound: Cc1cccc(-c2ccc(Cn3cc(C(=O)N[C@H]4CCOC[C@@H]4O)c4ncccc4c3=O)c(F)c2)c1 [Compound A29, 6-((3-fluoro-3′-methyl-[1,1′-biphenyl]-4-yl)methyl)-N-((3R,4S)-3-hydroxytetrahydro-2H-pyran-4-yl)-5-oxo-5,6-dihydro-1,6-naphthyridine-8-carboxamide]
pEC50 (human mAChR M1 [1]): 5.32
Emax (human mAChR M1 [1]): 61%
pEC50 (human mAChR M1 [2]): < 5.00
Emax (human mAChR M1 [2]): < 5%

Compound: Cn1ccc(-c2ccc(Cn3cc(C(=O)N[C@H]4CCCC[C@@H]4O)c4nccnc4c3=O)c(F)c2)n1 [Compound A55, 6-(2-fluoro-4-(1-methyl-1H-pyrazol-3-yl)benzyl)-N-((1S,2S)-2-hydroxycyclohexyl)-5-oxo-5,6-dihydropyrido[3,4-b]pyrazine-8-carboxamide]
pEC50 (human mAChR M1 [1]): 5.10
Emax (human mAChR M1 [1]): 67%
pEC50 (human mAChR M1 [2]): < 5.00
Emax (human mAChR M1 [2]): 12%

Compound: Cn1cc(-c2ccc(Cn3cc(C(=O)N[C@H]4CCC[C@@H]4O)c4ncccc4c3=O)cn2)cn1 [Compound A17, N-((1S,2S)-2-hydroxycyclopentyl)-6-((6-(1-methyl-1H-pyrazol-4-yl)pyridin-3-yl)methyl)-5-oxo-5,6-dihydro-1,6-naphthyridine-8-carboxamide]
pEC50 (human mAChR M1 [1]): ≤ 5.00
Emax (human mAChR M1 [1]): 55%
pEC50 (human mAChR M1 [2]): < 5.00
Emax (human mAChR M1 [2]): < 5%

Compound: Cc1cn2c(=O)n(Cc3ccc(-n4cccn4)cc3)cc(C(=O)N[C@H]3CCCC[C@@H]3O)c2n1 [Compound B28, 6-(4-(1H-pyrazol-1-yl)benzyl)-N-((1S,2S)-2-hydroxycyclohexyl)-2-methyl-5-oxo-5,6-dihydroimidazo[1,2-c]pyrimidine-8-carboxamide]
pEC50 (human mAChR M1 [1]): ≤ 5.00
Emax (human mAChR M1 [1]): 30%
pEC50 (human mAChR M1 [2]): < 5.00
Emax (human mAChR M1 [2]): < 5%

Compound: Cc1cc(-c2cc(F)c(Cn3cc(C(=O)N[C@H]4CCCC[C@@H]4O)c4ncccc4c3=O)c(F)c2)ccn1 [Compound A37, 6-(2,6-difluoro-4-(2-methylpyridin-4-yl)benzyl)-N-((1S,2S)-2-hydroxycyclohexyl)-5-oxo-5,6-dihydro-1,6-naphthyridine-8-carboxamide]
pEC50 (human mAChR M1 [1]): 6.11
Emax (human mAChR M1 [1]): 46%
pEC50 (human mAChR M1 [2]): < 5.00
Emax (human mAChR M1 [2]): < 5%

Compound: Cn1cc2c(-c3cc(F)c(Cn4cc(C(=O)NCC(O)C(F)(F)F)c5nccnc5c4=O)c(F)c3)cccc2n1 (stereo not shown) [Compound A74, 6-(2,6-difluoro-4-(2-methyl-2H-indazol-4-yl)benzyl)-5-oxo-N-(3,3,3-trifluoro-2-hydroxypropyl)-5,6-dihydropyrido[3,4-b]pyrazine-8-carboxamide]
pEC50 (human mAChR M1 [1]): 5.42
Emax (human mAChR M1 [1]): 53%
pEC50 (human mAChR M1 [2]): < 5.00
Emax (human mAChR M1 [2]): < 5%

Compound: Cn1cnc2c(C(=O)N[C@H]3CCCC[C@@H]3O)cn(Cc3ccc(-n4cccn4)cc3)c(=O)c21 [Compound C6, 5-(4-(1H-pyrazol-1-yl)benzyl)-N-((1S,2S)-2-hydroxycyclohexyl)-3-methyl-4-oxo-4,5-dihydro-3H-imidazo[4,5-c]pyridine-7-carboxamide]
pEC50 (human mAChR M1 [1]): 6.77
Emax (human mAChR M1 [1]): 43%
pEC50 (human mAChR M1 [2]): < 5.00
Emax (human mAChR M1 [2]): < 5%

Compound: Cn1ccc(-c2ccc(Cn3cc(C(=O)N[C@H]4CCCCC[C@@H]4O)c4ncn(C)c4c3=O)c(F)c2)n1 [Compound C3, 5-(2-fluoro-4-(1-methyl-1H-pyrazol-3-yl)benzyl)-N-((1S,2S)-2-hydroxycycloheptyl)-3-methyl-4-oxo-4,5-dihydro-3H-imidazo[4,5-c]pyridine-7-carboxamide]
pEC50 (human mAChR M1 [1]): 6.51
Emax (human mAChR M1 [1]): 60%
pEC50 (human mAChR M1 [2]): < 5.00
Emax (human mAChR M1 [2]): < 5%

Compound: Cn1cc(-c2ccc(Cn3cc(C(=O)N[C@H]4CCCCC[C@@H]4O)c4ncccc4c3=O)cn2)cn1 [Compound A18, N-((1S,2S)-2-hydroxycycloheptyl)-6-((6-(1-methyl-1H-pyrazol-4-yl)pyridin-3-yl)methyl)-5-oxo-5,6-dihydro-1,6-naphthyridine-8-carboxamide]
pEC50 (human mAChR M1 [1]): 5.78
Emax (human mAChR M1 [1]): 60%
pEC50 (human mAChR M1 [2]): < 5.00
Emax (human mAChR M1 [2]): < 5%

Compound: Cn1cc(-c2ccc(Cn3cc(C(=O)N[C@H]4CCCC[C@@H]4O)c4nccn4c3=O)c(F)c2)cn1 [Compound B6, 6-(2-fluoro-4-(1-methyl-1H-pyrazol-4-yl)benzyl)-N-((1S,2S)-2-hydroxycyclohexyl)-5-oxo-5,6-dihydroimidazo[1,2-c]pyrimidine-8-carboxamide]
pEC50 (human mAChR M1 [1]): 7.43
Emax (human mAChR M1 [1]): 74%
pEC50 (human mAChR M1 [2]): 5.81
Emax (human mAChR M1 [2]): 63%

Next, values leading:

pEC50 (human mAChR M1 [1]): 5.39
Emax (human mAChR M1 [1]): 64%
pEC50 (human mAChR M1 [2]): < 5.00
Emax (human mAChR M1 [2]): < 5%
Compound: Cn1cc2c(-c3cc(F)c(Cn4cc(C(=O)NC5CCOCC5)c5occc5c4=O)c(F)c3)cccc2n1 [Compound D23, 5-(2,6-difluoro-4-(2-methyl-2H-indazol-4-yl)benzyl)-4-oxo-N-(tetrahydro-2H-pyran-4-yl)-4,5-dihydrofuro[3,2-c]pyridine-7-carboxamide]

pEC50 (human mAChR M1 [1]): 5.66
Emax (human mAChR M1 [1]): 75%
pEC50 (human mAChR M1 [2]): < 5.00
Emax (human mAChR M1 [2]): < 5%
Compound: Cn1cc2c(-c3cc(F)c(Cn4cc(C(=O)N[C@@H]5CC[C@H]5O)c5occc5c4=O)c(F)c3)cccc2n1 (stereo in doubt) [Compound D21, 5-(2,6-difluoro-4-(2-methyl-2H-indazol-4-yl)benzyl)-N-((1R,2R)-2-hydroxycyclobutyl)-4-oxo-4,5-dihydrofuro[3,2-c]pyridine-7-carboxamide]

pEC50 (human mAChR M1 [1]): 5.34
Emax (human mAChR M1 [1]): 69%
pEC50 (human mAChR M1 [2]): < 5.00
Emax (human mAChR M1 [2]): < 5%
Compound: Cn1cc2c(-c3cc(F)c(Cn4cc(C(=O)N[C@H]5CCOC[C@@H]5O)c5sccc5c4=O)c(F)c3)cccc2n1 [Compound D30, 5-(2,6-difluoro-4-(2-methyl-2H-indazol-4-yl)benzyl)-N-((3R,4S)-3-hydroxytetrahydro-2H-pyran-4-yl)-4-oxo-4,5-dihydrothieno[3,2-c]pyridine-7-carboxamide]

pEC50 (human mAChR M1 [1]): 6.09
Emax (human mAChR M1 [1]): 77%
pEC50 (human mAChR M1 [2]): < 5.00
Emax (human mAChR M1 [2]): < 5%
Compound: Cn1cc2c(-c3cc(F)c(Cn4cc(C(=O)N[C@H]5CCC[C@@H]5O)c5occc5c4=O)c(F)c3)cccc2n1 [Compound D20, 5-(2,6-difluoro-4-(2-methyl-2H-indazol-4-yl)benzyl)-N-((1S,2S)-2-hydroxycyclopentyl)-4-oxo-4,5-dihydrofuran[3,2-c]pyridine-7-carboxamide]

pEC50 (human mAChR M1 [1]): < 5.00
Emax (human mAChR M1 [1]): 58%
pEC50 (human mAChR M1 [2]): < 5.00
Emax (human mAChR M1 [2]): < 5%
Compound: O=C(N[C@H]1CCCCC[C@@H]1O)c1cn(Cc2ccc(-n3cccn3)cc2)c(=O)c2ccoc12 [Compound D5, 5-(4-(1H-pyrazol-1-yl)benzyl)-N-((1S,2S)-2-hydroxycycloheptyl)-4-oxo-4,5-dihydrofuro[3,2-c]pyridine-7-carboxamide]

pEC50 (human mAChR M1 [1]): < 5.00
Emax (human mAChR M1 [1]): 51%
pEC50 (human mAChR M1 [2]): < 5.00
Emax (human mAChR M1 [2]): < 5%
Compound: Cn1cc(-c2ccc(Cn3cc(C(=O)N[C@H]4CCC[C@@H]4O)c4occc4c3=O)c(F)c2)cn1 [Compound D14, 5-(2-fluoro-4-(1-methyl-1H-pyrazol-4-yl)benzyl)-N-((1S,2S)-2-hydroxycyclopentyl)-4-oxo-4,5-dihydrofuro[3,2-c]pyridine-7-carboxamide]
